Source: patent US9096500B2, “Acyl sulfonamide compounds” (Pfizer Limited, priority 2010, dated 2015)

Assays:
[1] = molecular target: T1, Nav1.7 (or SCN9A) channel (Homo sapiens, UniProt Q15858); experiment: Nav1.7 (hSCN9A) electrophysiology assay, Ionworks Quattro platform; format: cell-based; settings: IW: Ionworks Quattro automated electrophysiological platform; HEK cells stably expressing hSCN9A; read-out: Nav1.7 EIC50
T1 construct: expressed in transfected cells

[2] = molecular target: T1, Nav1.7 (or SCN9A) channel; experiment: Nav1.7 (hSCN9A) electrophysiology assay, PatchXpress platform; format: cell-based; settings: estimated IC50 from single point electrophysiology data, HEK cells stably expressing hSCN9A, held at V1/2 of inactivation, read-out: Nav1.7 EIC50
In short: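 HEK cells stably expressing hSCN9A were recorded by whole-cell voltage clamp, including on PatchXpress, at 22–24°C with extracellular solution at pH 7.4. A 20 msec step to 0 mV followed an 8 s conditioning prepulse to the empirically determined inactivation V1/2. Inhibition was taken from current amplitude before vs after compound.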

T1 sequence (Q15858 whole entry): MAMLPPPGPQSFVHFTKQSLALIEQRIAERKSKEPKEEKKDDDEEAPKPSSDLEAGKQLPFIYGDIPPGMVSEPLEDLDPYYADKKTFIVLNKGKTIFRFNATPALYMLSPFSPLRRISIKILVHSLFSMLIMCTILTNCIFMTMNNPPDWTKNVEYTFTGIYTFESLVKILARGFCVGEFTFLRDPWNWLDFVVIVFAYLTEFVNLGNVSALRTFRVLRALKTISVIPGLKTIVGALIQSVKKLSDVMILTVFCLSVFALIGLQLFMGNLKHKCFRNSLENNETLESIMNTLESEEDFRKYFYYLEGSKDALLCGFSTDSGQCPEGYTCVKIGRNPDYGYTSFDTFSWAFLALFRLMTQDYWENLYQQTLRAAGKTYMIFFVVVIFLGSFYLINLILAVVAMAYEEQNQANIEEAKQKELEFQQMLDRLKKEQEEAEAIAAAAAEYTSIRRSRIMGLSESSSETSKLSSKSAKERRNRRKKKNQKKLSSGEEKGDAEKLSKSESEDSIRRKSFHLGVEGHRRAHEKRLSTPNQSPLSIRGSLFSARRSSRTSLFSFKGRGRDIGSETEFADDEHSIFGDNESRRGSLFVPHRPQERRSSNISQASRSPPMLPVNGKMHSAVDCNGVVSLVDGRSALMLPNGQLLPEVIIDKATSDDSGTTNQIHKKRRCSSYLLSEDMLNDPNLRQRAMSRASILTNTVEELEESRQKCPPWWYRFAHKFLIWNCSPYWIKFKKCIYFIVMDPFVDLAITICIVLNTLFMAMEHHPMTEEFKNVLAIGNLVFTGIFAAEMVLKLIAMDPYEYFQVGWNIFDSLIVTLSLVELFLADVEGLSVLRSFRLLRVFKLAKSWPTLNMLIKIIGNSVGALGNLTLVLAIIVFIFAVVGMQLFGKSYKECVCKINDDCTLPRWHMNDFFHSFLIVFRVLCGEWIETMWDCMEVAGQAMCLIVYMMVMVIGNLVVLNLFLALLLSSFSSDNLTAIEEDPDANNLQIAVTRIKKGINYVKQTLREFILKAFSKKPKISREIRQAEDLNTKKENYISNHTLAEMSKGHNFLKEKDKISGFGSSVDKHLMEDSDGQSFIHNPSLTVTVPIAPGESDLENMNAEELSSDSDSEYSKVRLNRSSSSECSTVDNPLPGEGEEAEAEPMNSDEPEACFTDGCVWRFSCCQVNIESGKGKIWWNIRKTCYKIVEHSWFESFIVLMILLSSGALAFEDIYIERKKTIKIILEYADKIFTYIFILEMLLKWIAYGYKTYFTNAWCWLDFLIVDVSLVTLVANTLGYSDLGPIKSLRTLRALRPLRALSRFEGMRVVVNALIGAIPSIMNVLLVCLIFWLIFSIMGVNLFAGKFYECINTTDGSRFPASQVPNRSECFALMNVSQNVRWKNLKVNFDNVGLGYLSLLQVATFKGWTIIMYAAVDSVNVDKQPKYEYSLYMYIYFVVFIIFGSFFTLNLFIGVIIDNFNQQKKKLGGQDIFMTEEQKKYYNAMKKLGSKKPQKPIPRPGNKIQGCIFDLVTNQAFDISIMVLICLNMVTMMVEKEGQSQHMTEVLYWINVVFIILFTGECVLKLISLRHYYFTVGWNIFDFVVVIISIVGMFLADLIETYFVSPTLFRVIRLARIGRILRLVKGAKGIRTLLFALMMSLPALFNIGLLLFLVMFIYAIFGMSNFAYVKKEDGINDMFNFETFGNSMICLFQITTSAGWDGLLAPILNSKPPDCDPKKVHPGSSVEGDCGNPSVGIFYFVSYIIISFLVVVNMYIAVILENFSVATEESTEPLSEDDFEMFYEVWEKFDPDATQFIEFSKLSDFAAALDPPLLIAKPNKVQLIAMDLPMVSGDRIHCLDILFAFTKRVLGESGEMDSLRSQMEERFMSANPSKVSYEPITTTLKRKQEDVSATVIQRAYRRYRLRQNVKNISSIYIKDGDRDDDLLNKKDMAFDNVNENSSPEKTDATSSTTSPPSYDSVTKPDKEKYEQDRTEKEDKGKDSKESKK

Compound | IC50 [1] [nM] | IC50 [2] [nM]
COc1ccc(OCc2ccc(C(=O)NS(C)(=O)=O)cc2)cc1 [Example 31, 4-[(4-Methoxyphenoxy)methyl]-N-(methylsulfonyl)benzamide] | 22000 | –
Cc1ccc(COc2cc(F)c(C(=O)NS(C)(=O)=O)cc2F)cc1 [Example 196, 2,5-difluoro-4-[(4-methylbenzyl)oxy]-N-(methylsulfonyl)benzamide] | – | > 1000
CS(=O)(=O)NC(=O)c1cc(F)c(OCC2CCC2)cc1F [Example 197, 4-(cyclobutylmethoxy)-2,5-difluoro-N-(methylsulfonyl)benzamide] | – | > 1000
COc1ccc(COc2cc(F)c(C(=O)NS(C)(=O)=O)cc2F)cc1 [Example 198, 2,5-difluoro-4-[(4-methoxybenzyl)oxy]-N-(methylsulfonyl)benzamide] | – | > 1000
CS(=O)(=O)NC(=O)c1cc(F)c(OCc2ccccc2F)cc1F [Example 199, 2,5-difluoro-4-[(2-fluorobenzyl)oxy]-N-(methylsulfonyl)benzamide] | – | 2400
COc1cc(C)ccc1COc1cc(F)c(C(=O)NS(C)(=O)=O)cc1F [Example 200, 2,5-difluoro-4-[(2-methoxy-4-methylbenzyl)oxy]-N-(methylsulfonyl)benzamide] | – | 5000
COc1cc(COc2cc(F)c(C(=O)NS(C)(=O)=O)cc2F)cc(OC)c1 [Example 201, 4-[(3,5-dimethoxybenzyl)oxy]-2,5-difluoro-N-(methylsulfonyl)benzamide] | – | > 1000
COc1ccc(OC)c(COc2cc(F)c(C(=O)NS(C)(=O)=O)cc2F)c1 [Example 202, 4-[(2,5-dimethoxybenzyl)oxy]-2,5-difluoro-N-(methylsulfonyl)benzamide] | – | 11000
Cc1ccc(COc2cc(F)c(C(=O)NS(C)(=O)=O)cc2F)cc1C [Example 203, 4-[(3,4-dimethylbenzyl)oxy]-2,5-difluoro-N-(methylsulfonyl)benzamide] | – | 1700
CS(=O)(=O)NC(=O)c1ccc(OCc2ccc(F)cc2F)cc1 [Example 204, 4-[(2,4-difluorobenzyl)oxy]-N-(methylsulfonyl)benzamide] | – | 3600
COc1ccc(F)c(COc2cc(F)c(C(=O)NS(C)(=O)=O)cc2F)c1 [Example 205, 2,5-difluoro-4-[(2-fluoro-5-methoxybenzyl)oxy]-N-(methylsulfonyl)benzamide] | – | > 3000
COc1cccc(COc2cc(F)c(C(=O)NS(C)(=O)=O)cc2F)c1OC [Example 206, 4-[(2,3-dimethoxybenzyl)oxy]-2,5-difluoro-N-(methylsulfonyl)benzamide] | – | > 1000
CS(=O)(=O)NC(=O)c1cc(F)c(OCc2cccc(Cl)c2)cc1F [Example 207, 4-[(3-chlorobenzyl)oxy]-2,5-difluoro-N-(methylsulfonyl)benzamide] | – | > 300
CS(=O)(=O)NC(=O)c1ccc(OCc2cc(F)ccc2F)cc1 [Example 208, 4-[(2,5-difluorobenzyl)oxy]-N-(methylsulfonyl)benzamide] | – | 2600
COc1ccc(C)cc1COc1ccc(C(=O)NS(C)(=O)=O)cc1 [Example 210, 4-[(2-methoxy-5-methylbenzyl)oxy]-N-(methylsulfonyl)benzamide] | – | > 1000
CS(=O)(=O)NC(=O)c1cc(F)c(OCc2ccc(OC(F)F)cc2)cc1F [Example 211, 4-{[4-(difluoromethoxy)benzyl]oxy}-2,5-difluoro-N-(methylsulfonyl)benzamide] | – | 2600
CS(=O)(=O)NC(=O)c1cc(F)c(OCc2ccc(OC(F)(F)F)cc2)cc1F [Example 212, 2,5-difluoro-N-(methylsulfonyl)-4-{[4-(trifluoromethoxy)benzyl]oxy}benzamide] | – | > 300
CS(=O)(=O)NC(=O)c1ccc(OCc2ccc(Cl)cc2F)cc1 [Example 213, 4-[(4-chloro-2-fluorobenzyl)oxy]-N-(methylsulfonyl)benzamide] | – | > 300
CS(=O)(=O)NC(=O)c1cc(F)c(OCc2cccc(Cl)c2Cl)cc1F [Example 214, 4-[(2,3-dichlorobenzyl)oxy]-2,5-difluoro-N-(methylsulfonyl)benzamide] | – | 3800

Compound | IC50 [1] [nM] | IC50 [2] [nM]
COc1cc(F)ccc1COc1cc(F)c(C(=O)NS(C)(=O)=O)cc1F [Example 215, 2,5-difluoro-4-[(4-fluoro-2-methoxybenzyl)oxy]-N-(methylsulfonyl)benzamide] | – | > 1000
CS(=O)(=O)NC(=O)c1cc(F)c(OCc2ccc(F)cc2)cc1F [Example 216, 2,5-difluoro-4-[(4-fluorobenzyl)oxy]-N-(methylsulfonyl)benzamide] | – | 3800
Cc1cccc(COc2cc(F)c(C(=O)NS(C)(=O)=O)cc2F)c1 [Example 217, 2,5-difluoro-4-[(3-methylbenzyl)oxy]-N-(methylsulfonyl)benzamide] | – | > 1000
CS(=O)(=O)NC(=O)c1cc(F)c(OCc2ccccc2OC(F)F)cc1F [Example 218, 4-{[2-(difluoromethoxy)benzyl]oxy}-2,5-difluoro-N-(methylsulfonyl)benzamide] | – | 3400
COc1ccc(C)cc1COc1cc(F)c(C(=O)NS(C)(=O)=O)cc1F [Example 219, 2,5-difluoro-4-[(2-methoxy-5-methylbenzyl)oxy]-N-(methylsulfonyl)benzamide] | – | > 1000
CS(=O)(=O)NC(=O)c1cc(F)c(OCc2ccccc2C(F)(F)F)cc1F [Example 220, 2,5-difluoro-N-(methylsulfonyl)-4-{[2-(trifluoromethyl)benzyl]oxy}benzamide] | – | 1700
CS(=O)(=O)NC(=O)c1cc(F)c(OCc2ccccc2Cl)cc1F [Example 221, 4-[(2-chlorobenzyl)oxy]-2,5-difluoro-N-(methylsulfonyl)benzamide] | – | 1800
COc1cc(COc2cc(F)c(C(=O)NS(C)(=O)=O)cc2F)ccc1C [Example 222, 2,5-difluoro-4-[(3-methoxy-4-methylbenzyl)oxy]-N-(methylsulfonyl)benzamide] | – | 3600
COc1ccc(Cl)cc1COc1ccc(C(=O)NS(C)(=O)=O)cc1 [Example 223, 4-[(5-chloro-2-methoxybenzyl)oxy]-N-(methylsulfonyl)benzamide] | – | > 300
CS(=O)(=O)NC(=O)c1cc(F)c(OCc2cccc(OC(F)F)c2)cc1F [Example 224, 4-{[3-(difluoromethoxy)benzyl]oxy}-2,5-difluoro-N-(methylsulfonyl)benzamide] | – | > 300
CS(=O)(=O)NC(=O)c1cc(F)c(OCc2ccc(Cl)cc2)cc1F [Example 225, 4-[(4-chlorobenzyl)oxy]-2,5-difluoro-N-(methylsulfonyl)benzamide] | – | > 300
CCOc1ccccc1COc1cc(F)c(C(=O)NS(C)(=O)=O)cc1F [Example 226, 4-[(2-ethoxybenzyl)oxy]-2,5-difluoro-N-(methylsulfonyl)benzamide] | – | > 1000
CS(=O)(=O)NC(=O)c1cc(F)c(OCc2ccc3ccccc3c2)cc1F [Example 227, 2,5-difluoro-N-(methylsulfonyl)-4-(2-naphthylmethoxy)benzamide] | – | 940
Cc1ccc(COc2cc(F)c(C(=O)NS(C)(=O)=O)cc2F)cc1Cl [Example 228, 4-[(3-chloro-4-methylbenzyl)oxy]-2,5-difluoro-N-(methylsulfonyl)benzamide] | – | 1200
CS(=O)(=O)NC(=O)c1cc(F)c(OCc2cc(F)ccc2F)cc1F [Example 229, 4-[(2,5-difluorobenzyl)oxy]-2,5-difluoro-N-(methylsulfonyl)benzamide] | – | > 1000
COc1ccc(Cl)cc1COc1cc(F)c(C(=O)NS(C)(=O)=O)cc1F [Example 230, 4-[(5-chloro-2-methoxybenzyl)oxy]-2,5-difluoro-N-(methylsulfonyl)benzamide] | – | 2200
CS(=O)(=O)NC(=O)c1cc(F)c(OCc2ccc(Cl)cc2F)cc1F [Example 231, 4-[(4-chloro-2-fluorobenzyl)oxy]-2,5-difluoro-N-(methylsulfonyl)benzamide] | – | 1400
CS(=O)(=O)NC(=O)c1cc(F)c(OCc2ccc(F)cc2Cl)cc1F [Example 232, 4-[(2-chloro-4-fluorobenzyl)oxy]-2,5-difluoro-N-(methylsulfonyl)benzamide] | – | 2100
COc1ccccc1COc1cc(F)c(C(=O)NS(C)(=O)=O)cc1F [Example 233, 2,5-difluoro-4-[(2-methoxybenzyl)oxy]-N-(methylsulfonyl)benzamide] | – | > 1000
